# Test results: patent US10597730B2, “Method of diagnosing cancer” (The Hospital for Sick Children, priority 2012, dated 2020)
# “Also recorded” adds a separate entry of the source.
# Key:
# Format in all cases: cell-based, human
# [1] = system: glioma G179 tumour-initiating cells; test: Telomerase inhibition, cell population doubling analysis, G179 TIC line; details: Imetelstat 5 μM twice a week
# Source text: Samples were obtained with patients' consent according to the Research Ethics Boards at The Hospital for Sick Children and Toronto Western Hospital. Fetal Neural Stem (NS) HF240 cells, human Mesenchymal Progenitor cells, human umbilical cord perivascular cells, and human skin-derived precursors hSKPs were previously described (Castelo-Branco et al. Clin Cancer Res. 2011 Jan. 1; 17(1):111-21). Glioma tumour-initiating cell (TIC) lines G179 and GLINS1 were derived from patients diagnosed with classic glioblastoma multiforme and maintained as previously described (Castelo-Branco et al., 2011). All cell lines and patient samples are described in Table 1.
# HF240 normal neural stem cell line and the G179 TIC line were treated twice a week with 5 μM Imetelstat telomerase inhibitor. Cell population doubling analysis after treatment was then determined.
# [2] = system: hypermethylated neuroblastoma cell lines; test: Telomerase inhibitor treatment of hypermethylated neuroblastoma cell lines; details: two neuroblastoma cell lines hypermethylated in region 2 of the TERT promoter, 5 μM for 5 weeks
# [3] = system: neuroblastoma cell line (CHLA90); test: Telomerase inhibitor treatment of unmethylated neuroblastoma cell line CHLA90; details: CHLA90, unmethylated within region 2 of the TERT promoter, evidence of ALT; 5 μM for 5 weeks
substance,measurement,setting,value
Imetelstat,growth / replicative potential (cell population doubling),[1],inhibit growth; also recorded: loss of replicative potential
same,response to treatment (growth and viability),[2],responded
same,response to treatment (growth and viability),[2]; listed as imetelstat,inhibitory effect on growth and viability
same,response to treatment (growth and viability),[3],did not
